Source: patent US20080051381A1, “Suppression of estrus in mares by a single injection method” (priority 2006, published 2008)
Marks after values point to notes of the source that are not given here.

Assays:
[1] = tested on: estrus and ovulation in mares; conditions: prior knowledge; cited from earlier work
[2] = tested on: estrus and ovulation in light-horse mares; experiment: Suppression of estrus and ovulation in mares after a single sustained release injection; assay type: in vivo, mares (equine)
Experimental: Thirty one randomly selected light-horse mares are maintained on native pasture and ad libitum hay. Verification of normal reproductive cyclicity is determined by follicular ultrasound, teasing with a vigorous stallion, and radioimmunoassay of plasma progesterone concentrations. Mares displaying estrus (i.e. the estrus mare group) with plasma progesterone levels below 1 ng/mL are followed by ultrasound until a follicle 30 mm or greater is determined. When a follicle reaches 30 mm, 2 mL of 2000 IU human chorionic gonadotropin is administered to induce ovulation. Mares in the estrus group are subsequently followed by ultrasound until ovulation and corpus luteal formation are verified. Six days after ovulation is determined, mares in this group are given a 2 mL injection of dinoprost tromethamine and randomly assigned to a treatment regime set forth in Table 1.
Mares not displaying estrus (i.e. the non-estrus mare group) with progesterone concentrations above 1 ng/mL and the presence of a corpus luteum verified by ultrasound are given 2 mL dinoprost tromethamine. Once estrus is detected by teasing with a stallion, these mares are treated as the mares assigned to the estrus mare group. […]
The mares of each of the groups in Table 1 are followed via ultrasound every other day after treatment until a follicle 25 mm or greater is detected. […]
Injection site assessments are made on days 0, 1, 3, 6, and 9 post-treatment. […] Plasma concentrations of progesterone are measured with commercially available reagents (Diagnostic Systems Laboratories, Webster, Tex.). […] Data are analyzed by the Proc Mixed procedure of SAS (SAS Institute Inc., Cary, N.C.). Single point variables are analyzed via a one way ANOVA. Data from injection site scores are analyzed for effects of treatment, time, and treatment by time interactions with repeated measures. When a significant F is detected (P<0.05), the least significant difference (LSD) test is used to determine differences between groups within times.

[3] = tested on: injection site swelling in mares; experiment: Injection site assessment (swelling score 0-3) in mares; assay type: in vivo, mares (equine); conditions: compared to controls (FIG. 1)
Experimental: Injection site assessments are made on days 0, 1, 3, 6, and 9 post-treatment. Scores are based on a subjective scale of 0-3. Zero means no swelling; one means slight diameter swelling (i.e. about 12.5 mm); 2 means moderate diameter swelling (i.e. about 12.5 to 25 mm); and 3 means significant swelling (i.e. more than 25 mm). Plasma concentrations of progesterone are measured with commercially available reagents (Diagnostic Systems Laboratories, Webster, Tex.). Intra- and interassay CV and assay sensitivities are 5%, 8%, and 0.1 ng/mL. Data are analyzed by the Proc Mixed procedure of SAS (SAS Institute Inc., Cary, N.C.). Single point variables are analyzed via a one way ANOVA. Data from injection site scores are analyzed for effects of treatment, time, and treatment by time interactions with repeated measures. When a significant F is detected (P<0.05), the least significant difference (LSD) test is used to determine differences between groups within times.

SMILES | Effect on estrus and ovulation (background, in words) [1] | Effectiveness at delaying estrus and ovulation (in words) ([2]; compared to controls) | Days to ovulation ([2]; relative to administration of dinoprost tromethamine and treatment, mean ± SE) | Days to estrus ([2]; single injection on d0 together with 2 mL dinoprost tromethamine, mean ± SE) | Injection site swelling / biocompatibility (in words) [3]
C=CC[C@]1(O)CC[C@H]2[C@@H]3CCC4=CC(=O)CCC4=C3C=C[C@@]21C [Altrenogest, 17-α-Allyl-17-β-hydroxyoestra-4,9,11-trien-3-one] | suppress estrus and ovulation |  |  |  | 
CC(=O)O[C@]1(C(C)=O)CC[C@H]2[C@@H]3C[C@H](C)C4=CC(=O)CC[C@]4(C)[C@H]3CC[C@@]21C [Medroxyprogesterone, Medroxyprogesterone acetate] | not to effect estrus, ovulation or pregnancy maintenance | not effective at delaying estrus or ovulation | 11.3 ± 2.14^a days | 6.2 ± 1.38^a days | most biocompatible formulation
CC(=O)[C@H]1CC[C@H]2[C@@H]3CCC4=CC(=O)CC[C@]4(C)[C@H]3CC[C@]12C [progesterone] | suppress estrus and ovulation |  |  |  | 
